The values below come from PMC10096391, “Discovery of N,4-Di(1H-pyrazol-4-yl)pyrimidin-2-amine-Derived CDK2 Inhibitors as Potential Anticancer Agents: Design, Synthesis, and Evaluation” (Molecules, 2023).

One assay relates to A2780 cells. Kind of assay: Annexin V/PI apoptosis assay, A2780. It counts as cell-based. The settings on record: 48 h. The method, then:
Annexin V-fluorescein isothiocyanate (FITC) apoptosis detection kit I (consisting of a ten-time stock solution of binding buffer, FITC–annexin V, and PI staining solution) was used to determine the effect of the compounds on cancer cell survival as previously reported. Briefly, six-well plates (Sigma-Aldrich, NSW, Australia) were seeded with about 1–2 × 10^5 cells/well in 2 mL growth medium, incubated at 37 °C and 5% CO2 overnight, treated with various concentrations of the test compounds, and incubated for 48 h. The wells were collected by trypsinization, transferred into FACS tubes, washed twice with 1 × PBS, and centrifuged at 300× g for 5 min. The pellets were then suspended in 100 µL of 1 × binding buffer and incubated in the dark with 3 µL of PI and 3 µL of FITC-conjugated annexin V solutions for 15 min. Finally, 200 µL of binding buffer was added to each sample and analyzed by the CytoFLEX cytometer. The extent of apoptotic cell death was quantified as the sum of the percentages of early apoptotic cells (annexin V-positive and PI-negative) and late apoptotic cells (both annexin–V- and PI-positive) and presented graphically as a contour diagram relative to the untreated control.

The next assay concerns the target CDK1/cyclin B (CDK1B) (Homo sapiens, UniProt P06493). Kind of assay: ADP-Glo kinase assay, CDK1/cyclin B. Format: biochemical. The settings on record: apparent Ki from IC50, ADP-Glo. On the procedure: The luminescent ADP-Glo™ assay, which measures the amount of ADP formed in a kinase reaction as described previously, was used to determine the kinase inhibition profile of the compounds. […] Ki values were calculated from their corresponding IC50 values (the concentrations of inhibitors that inhibit the kinase activity by 50%) and the Michaelis–Menten constant (Km) of ATP for each kinase using the Cheng–Prusoff equation as previously stated. In brief, 1 μL of each concentration of the test compounds was added to the respective wells, and to it were added 1 μL of the kinases and their respective substrates, diluted to the desired concentration in kinase reaction buffer ([…] tris base pH 7.5, 20 mM MgCl2, 0.4 µM dithiothreitol, and 0.1 mg/mL bovine serum albumin), and the pH was adjusted by adding 1 μL of a two-fold diluted kinase reaction buffer. To initiate the kinase activity, 1 μL of ATP solution (the concentration varies depending on the type of kinase under investigation) was added to each well, and the mixture was incubated at room temperature (20 to 22 °C) for 30–60 min depending on the kinase being tested. The reaction was then halted, 5 μL of the ADP-Glo reagent was added to each well (removing any unreacted ATP), and it was incubated at room temperature for 40 min. Then, to each well, 10 μL of the kinase detection reagent containing luciferin was added, which was incubated once more at room temperature in the dark for 30 min and the luminescence was measured by an EnVision® multi-label plate reader with an integration time of 1.5 s per well. Positive controls (the wells without the inhibitor) and negative or blank controls (the wells without the inhibitor and the enzyme, but with 1 × kinase reaction buffer) were also determined in 2.5% DMSO.
The percentage of kinase inhibition was determined using the following equation: % Residual kinase activity=Luminescence in the presence of inhibitor−Luminescence of blank control/Luminescence in the absence of inhibitor−Luminescence of blank control×100%%kinase inhbition=100%−%Residual kinase activity
Km is defined as the concentration of ATP or the substrate required to produce 50% of the maximal reaction rate in the kinase reaction. Therefore, since we used the concentration of ATP and the substrate at their Km values, Ki simply equals IC50/2 assuming these inhibitors are ATP-competitive based on the Cheng–Prusoff equation: Ki = IC50/(1 + ([ATP]/Km(ATP))) where [ATP] is the ATP concentration used for the IC50 determination and Km(ATP) for each kinase was determined experimentally.
(In general: In ADP-Glo the light output rises with the ADP produced.)

Chain of CDK1/cyclin B (CDK1B) (P06493 whole entry): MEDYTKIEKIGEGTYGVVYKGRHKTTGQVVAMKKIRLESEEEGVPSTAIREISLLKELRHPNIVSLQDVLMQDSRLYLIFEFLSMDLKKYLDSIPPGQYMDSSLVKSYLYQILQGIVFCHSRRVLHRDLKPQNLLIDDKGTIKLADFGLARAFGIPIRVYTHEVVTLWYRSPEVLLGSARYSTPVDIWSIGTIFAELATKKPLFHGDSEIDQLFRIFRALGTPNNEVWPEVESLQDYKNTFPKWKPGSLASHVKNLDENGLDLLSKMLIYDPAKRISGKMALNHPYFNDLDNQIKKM
Chain of CDK1/cyclin B (CDK1B) (P14635 whole entry partner): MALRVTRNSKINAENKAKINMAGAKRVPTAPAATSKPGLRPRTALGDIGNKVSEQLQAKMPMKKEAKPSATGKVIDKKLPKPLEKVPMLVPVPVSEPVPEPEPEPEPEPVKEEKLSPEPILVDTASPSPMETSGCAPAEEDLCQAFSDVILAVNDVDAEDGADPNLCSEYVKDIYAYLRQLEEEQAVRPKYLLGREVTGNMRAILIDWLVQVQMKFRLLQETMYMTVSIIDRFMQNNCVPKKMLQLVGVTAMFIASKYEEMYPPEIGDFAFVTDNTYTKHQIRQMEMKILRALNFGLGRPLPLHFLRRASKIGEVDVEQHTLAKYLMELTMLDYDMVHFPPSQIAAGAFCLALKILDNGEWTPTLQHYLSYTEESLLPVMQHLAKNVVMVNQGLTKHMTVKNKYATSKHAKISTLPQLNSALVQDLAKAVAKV

With `Cn1cc(-c2nc(Nc3cn[nH]c3)ncc2Cl)cn1` [Compound 15, 5-Chloro-4-(1-methyl-1H-pyrazol-4-yl)-N-(1H-pyrazol-4-yl)pyrimidin-2-amine], the “apoptosis (annexin V positive, early + late)” value in the assay on A2780 cells (A2780, 0.5 µM) amounted to 47%; in the assay with A2780 cells (A2780, 2 µM), 49%. Moreover, in the assay on A2780 cells (Homo sapiens, A2780, 0.5 µM, read-out: Q1-LL, viable cells), the viability at 0.5 µM stood at 52.7%. The viability at 2 µM in the assay on A2780 cells (Homo sapiens, A2780, 2 µM, read-out: Q1-LL, viable cells) was found to be 50.5%. Moreover, the Ki on CDK1/cyclin B (CDK1B) was found to be 25 nM.
